Measurements as given in patent US20220331322A1, “COMPOUND FOR INHIBITING CELL DEATH” (Christian-Albrechts-Universität zu Kiel, priority 2019, published 2022).

Experiments:
NF-κB = assay: Western blot of NF-κB activation (p-NF-κB) after TZ stimulation; type: cell-based, murine; details: L929, 100 ng/ml TNF-α + 25 μM zVAD (TZ), 1 mM primidone
Method: It was then analyzed whether primidone interferes with the canonical NF-κB signaling pathway which drives the expression of pro-survival molecules. The binding of TNF-α to its corresponding receptor (TNFR1) initially results in the activation of the NF-κB signaling pathway. In this early phase of TNF activation, the cells are protected from cell death by the presence of a membrane-bound complex known as complex I which is formed within seconds after engagement of TNFR1 by TNF-α. This complex induces the expression of pro-survival molecules via activation of the canonical NF-κB pathway. As the default response of most cells to TNF-α is survival and NF-κB-mediated upregulation of pro-survival genes, it was analyzed whether primidone functions in a survival-signaling mode and thus indirectly prevents cell death signaling. For this purpose, murine L929 cells were stimulated at 37° C. for different time periods (as indicated) with 100 ng/ml TNF-α+25 μM zVAD (TZ) in the absence (vehicle) or presence of 1 mM primidone. Subsequently, a Western blot analysis of the cell lysates using a specific p-NF-κB antibody was performed.

RIPK1 = RIPK1 phosphorylation (Ser166) western blot after TSZ; type: cell-based, human; details: U937, TSZ, 1 mM primidone
Method: It was tested whether primidone interferes with binding of TNF-α to its corresponding receptor TNFR1. To induce cell death, human U937 cells were treated in the absence (vehicle) or presence of 1 mM primidone with 100 ng/ml Fc-tagged TNF-α+1 μM SMAC mimetic SM164+25 μM zVAD (TSZ) for different time periods, followed by immunopurification of the immunoprecipitated TNF-α-induced complex I using μMACS™ protein A/G microbeads, and western blot analysis using a specific RIPK1 antibody.
It was then analyzed if the previously immunoprecipitated RIPK1 is activated by phosphorylation. For this purpose, the Western Blot shown before (FIG. 5) was “stripped” by chemically removing all reagents from the blot and re-developed with an antibody that only detects RIPK1 in its activate (i.e. phosphorylated) form.

[1] = Kidney ischemia-reperfusion injury (IRI) mouse model; type: in vivo; details: mice
Method: IRI is a clinically highly relevant model, since it is an unavoidable consequence after kidney transplantation and contributes to acute kidney injuries in various contexts (Müller et al., 2017). To test whether primidone could be used to suppress pathophysiological RIPK1-mediated cell death in renal IRI, mice were provided with a drinking solution containing either primidone at 2.875 mM or vehicle in the regular drinking water for five days prior to ischemia reperfusion surgery until the end of the reperfusion phase. Induction of murine kidney IRI was performed via a midline abdominal incision and bilateral renal pedicle clamping for 37 min using microaneurysm clamps (Aesculap Inc., Center Valley, Pa., USA). Throughout the surgical procedure, mice were kept under isoflurane narcosis and the body temperature was maintained at 36° C. to 37° C. by continuous monitoring using a temperature-controlled self-regulated heating system (Fine Science Tools, Heidelberg, Germany). After removal of the clamps, reperfusion of the kidneys was confirmed visually before the abdomen was closed in two layers using standard 6-0 sutures. After 48 h reperfusion, the mice were sacrificed, blood samples were taken by retrobulbar punction and organs were collected for analysis.
For histology, kidney samples freshly obtained were fixed in 4.5% neutral-buffered formaldehyde and embedded in paraffin. Sections were dewaxed, rehydrated, and subjected to Masson trichrome staining according to routine protocols. Sections were dehydrated and mounted using DePeX mounting media (Serva). Stainings were evaluated in a blinded manner using a Leica Axiovert microscope and Axio Vision SE64 Rel 4.9. software (Leica Microsystems, Wetzlar, Germany). For data presentation, mild sharpening, contrast enhancement and gamma adjustment was performed. To analyze cell death of the tissue sections, a TdT-mediated dUTP nick end labelling (TUNEL) assay was performed using a fluorescence-based detection kit according to the manufacturer's instructions (G3250, Promega). Briefly, tissue sections were dewaxed, rehydrated, fixed in 4% paraformaldehyde and permeabilized with Proteinase K for 10 min at RT. Following this, the sections were equilibrated with the provided buffer for 10 min and labeled with the TdT reaction mix for 60 min at 37° C. in a humidified dark environment. […] Fluorescence micrographs (data not shown) were acquired with a 20× and 40× objective magnifications using a standard fluorescein filter set to view the green fluorescence at 520 nm with a Leica Axiovert microscope and Axio Vision SE64 Rel 4.9 software. Quantification of TUNEL-positive cells was performed manually by two blinded observers by evaluating 8 randomly selected fields of view per slide.

L929 cells = assay: TLR3-mediated cell death induced by poly (I:C) + zVAD; type: cell-based, murine; details: L929, 1 μg/ml poly (I:C) + 25 μM zVAD, 24 h; primidone 1 mM, Nec-1s 20 μM
Source text: Cell death was induced by activation of the Toll-like receptor 3 (TLR3). TLR3 is mainly expressed on immune cells, where it senses pathogen-associated molecular patterns and initiates innate immune response. The TLR3 agonist poly (I:C) was developed to mimic pathogens infection and boost immune system activation. In experimental models, poly (I:C) is known to induce regulated cell death in cells expressing TLR3. To examine whether primidone also blocks TLR3-mediated cell death, murine L929 cells were stimulated for 24 h at 37° C. with vehicle (a), 1 μg/ml of the TLR3 ligand poly (I:C) alone (b) or in combination with 25 μM zVAD (c). In addition, cells were stimulated with 1 μg/ml poly (I:C), 25 μM zVAD and 20 μM Nec-1s (d) and with 1 μg/ml poly (I:C), 25 μM zVAD and 1 mM primidone (e).

Jurkat cells = assay: Anti-Fas antibody induced RIPK1-independent apoptosis; type: cell-based, human; details: 5 ng/ml anti-Fas antibody, 5 h, zVAD 25 μM, primidone 1 mM
Method: To this end, human T cells (Jurkat cells) were incubated for 5 h at 37° C. in the presence of (a) vehicle, (b) 5 ng/ml anti-Fas antibody, (c) 5 ng/ml anti-Fas antibody in combination with 25 μM of the pan-caspase inhibitor zVAD, and (d) 5 ng/ml anti-Fas antibody in combination with 1 mM primidone. The addition of the anti-Fas antibody induces apoptosis, a caspase-dependent form of regulated cell death that can be inhibited by the addition of the pan-caspase inhibitor zVAD.

[2] = primidone 2.875 mM in drinking water from 5 days before surgery, 37 min bilateral clamping, 48 h after reperfusion

CCC1(c2ccccc2)C(=O)NCNC1=O [primidone, 5-Ethyl-5-phenyl-1,3-diazinane-4,6-dione]
Activation (phosphorylation) of NF-κB (NF-κB): Activation (phosphorylation) of NF-κB was detected
Activation (phosphorylation) of RIPK1 at residue Ser166 (RIPK1): completely blocked
Serum concentration of creatinine [1, 2]: significantly reduced
Serum concentration of urea [1, 2]: significantly reduced
TUNEL-positive cells (cells undergoing regulated cell death) in kidney sections ([1]; primidone 2.875 mM in drinking water, 48 h reperfusion): significant reduced number of cells undergoing regulated cell death
Masson trichrome histology of renal outer medulla (tissue integrity) ([1]; primidone 2.875 mM in drinking water, 48 h reperfusion, data not shown): better preservation of tissue integrity
Protection from RIPK1-mediated cell death induced by poly (I:C) and zVAD (L929 cells): effectively protect cells
Inhibition of anti-Fas antibody induced cell death (caspase-dependent, RIPK1-independent) (Jurkat cells): no inhibitory effect
